Assay: molar heat capacity at constant pressure
Conditions: Liquid

CC(C)CCCCCCCOC(=O)c1ccccc1C(=O)OCCCCCCCC(C)C
molar heat capacity at constant pressure [J/K/mol]
Conditions | Flow calorimetry | Numerical integration with Cp at 1 atm and U at elevated pressures
293.15 K, 100 kPa | 754.86 | 755.75
293.15 K, 10000 kPa | – | 754.86
293.15 K, 20000 kPa | – | 753.52
293.15 K, 30000 kPa | – | 753.07
293.15 K, 40000 kPa | – | 752.18
293.15 K, 50000 kPa | – | 751.73
293.15 K, 60000 kPa | – | 751.29
293.15 K, 70000 kPa | – | 750.84
293.15 K, 80000 kPa | – | 750.84
293.15 K, 90000 kPa | – | 750.39
293.15 K, 100000 kPa | – | 750.39
293.15 K, 110000 kPa | – | 749.95
293.15 K, 120000 kPa | – | 749.95
293.15 K, 130000 kPa | – | 749.95
293.15 K, 140000 kPa | – | 749.95
303.15 K, 100 kPa | – | 771.39
303.15 K, 10000 kPa | – | 770.05
303.15 K, 20000 kPa | – | 768.71
303.15 K, 30000 kPa | – | 767.81
303.15 K, 40000 kPa | – | 767.37
303.15 K, 50000 kPa | – | 766.92
303.15 K, 60000 kPa | – | 766.47
303.15 K, 70000 kPa | – | 766.03
303.15 K, 80000 kPa | – | 765.58
303.15 K, 90000 kPa | – | 765.58
303.15 K, 100000 kPa | – | 765.13
303.15 K, 110000 kPa | – | 765.13
303.15 K, 120000 kPa | – | 765.13
303.15 K, 130000 kPa | – | 765.13
303.15 K, 140000 kPa | – | 765.13
313.15 K, 100 kPa | 788.81 | 786.57
313.15 K, 10000 kPa | – | 785.23
313.15 K, 20000 kPa | – | 784.34
313.15 K, 30000 kPa | – | 783.45
313.15 K, 40000 kPa | – | 782.55
313.15 K, 50000 kPa | – | 782.11
313.15 K, 60000 kPa | – | 781.66
313.15 K, 70000 kPa | – | 781.21
313.15 K, 80000 kPa | – | 781.21
313.15 K, 90000 kPa | – | 780.77
313.15 K, 100000 kPa | – | 780.77
313.15 K, 110000 kPa | – | 780.77
313.15 K, 120000 kPa | – | 780.77
313.15 K, 130000 kPa | – | 780.32
313.15 K, 140000 kPa | – | 780.32
323.15 K, 100 kPa | – | 802.65
323.15 K, 10000 kPa | – | 801.31
323.15 K, 20000 kPa | – | 799.97
323.15 K, 30000 kPa | – | 799.08
323.15 K, 40000 kPa | – | 798.63
323.15 K, 50000 kPa | – | 797.74
323.15 K, 60000 kPa | – | 797.29
323.15 K, 70000 kPa | – | 797.29
323.15 K, 80000 kPa | – | 796.85
323.15 K, 90000 kPa | – | 796.4
323.15 K, 100000 kPa | – | 796.4
323.15 K, 110000 kPa | – | 796.4
323.15 K, 120000 kPa | – | 796.4
323.15 K, 130000 kPa | – | 796.4
323.15 K, 140000 kPa | – | 796.4
333.15 K, 100 kPa | 816.5 | 818.73
333.15 K, 10000 kPa | – | 817.39
333.15 K, 20000 kPa | – | 816.05
333.15 K, 30000 kPa | – | 815.16
333.15 K, 40000 kPa | – | 814.27
333.15 K, 50000 kPa | – | 813.82
333.15 K, 60000 kPa | – | 813.37
333.15 K, 70000 kPa | – | 812.93
333.15 K, 80000 kPa | – | 812.93
333.15 K, 90000 kPa | – | 812.48
333.15 K, 100000 kPa | – | 812.48
333.15 K, 110000 kPa | – | 812.48
333.15 K, 120000 kPa | – | 812.48
333.15 K, 130000 kPa | – | 812.48
333.15 K, 140000 kPa | – | 812.48
343.15 K, 100 kPa | – | 835.26
343.15 K, 10000 kPa | – | 833.92
343.15 K, 20000 kPa | – | 832.58
343.15 K, 30000 kPa | – | 831.69
343.15 K, 40000 kPa | – | 830.79
343.15 K, 50000 kPa | – | 830.35
343.15 K, 60000 kPa | – | 829.9
343.15 K, 70000 kPa | – | 829.45
343.15 K, 80000 kPa | – | 829.01
343.15 K, 90000 kPa | – | 829.01
343.15 K, 100000 kPa | – | 829.01
343.15 K, 110000 kPa | – | 829.01
343.15 K, 120000 kPa | – | 829.01
343.15 K, 130000 kPa | – | 828.56
343.15 K, 140000 kPa | – | 829.01
353.15 K, 100 kPa | 852.23 | 852.23
353.15 K, 10000 kPa | – | 850.45
353.15 K, 20000 kPa | – | 849.11
353.15 K, 30000 kPa | – | 848.21
353.15 K, 40000 kPa | – | 847.32
353.15 K, 50000 kPa | – | 846.87
353.15 K, 60000 kPa | – | 846.43
353.15 K, 70000 kPa | – | 845.98
353.15 K, 80000 kPa | – | 845.98
353.15 K, 90000 kPa | – | 845.53
353.15 K, 100000 kPa | – | 845.53
353.15 K, 110000 kPa | – | 845.53
353.15 K, 120000 kPa | – | 845.53
353.15 K, 130000 kPa | – | 845.53
353.15 K, 140000 kPa | – | 845.53
363.15 K, 100 kPa | – | 869.21
363.15 K, 10000 kPa | – | 867.42
363.15 K, 20000 kPa | – | 866.08
363.15 K, 30000 kPa | – | 865.19
363.15 K, 40000 kPa | – | 864.29
363.15 K, 50000 kPa | – | 863.85
363.15 K, 60000 kPa | – | 863.4
363.15 K, 70000 kPa | – | 862.95
363.15 K, 80000 kPa | – | 862.95
363.15 K, 90000 kPa | – | 862.95
363.15 K, 100000 kPa | – | 862.51
363.15 K, 110000 kPa | – | 862.51
363.15 K, 120000 kPa | – | 862.51
363.15 K, 130000 kPa | – | 862.51
363.15 K, 140000 kPa | – | 862.51
373.15 K, 100 kPa | 893.77 | 886.62
373.15 K, 10000 kPa | – | 884.84
373.15 K, 20000 kPa | – | 883.5
373.15 K, 30000 kPa | – | 882.6
373.15 K, 40000 kPa | – | 881.71
373.15 K, 50000 kPa | – | 881.26
373.15 K, 60000 kPa | – | 880.82
373.15 K, 70000 kPa | – | 880.37
373.15 K, 80000 kPa | – | 880.37
373.15 K, 90000 kPa | – | 879.93
373.15 K, 100000 kPa | – | 879.93
373.15 K, 110000 kPa | – | 879.93
373.15 K, 120000 kPa | – | 879.93
373.15 K, 130000 kPa | – | 879.93
373.15 K, 140000 kPa | – | 879.93
383.15 K, 100 kPa | – | 904.49
383.15 K, 10000 kPa | – | 902.7
383.15 K, 20000 kPa | – | 901.36
383.15 K, 30000 kPa | – | 900.02
383.15 K, 40000 kPa | – | 899.58
383.15 K, 50000 kPa | – | 898.68
383.15 K, 60000 kPa | – | 898.24
383.15 K, 70000 kPa | – | 898.24
383.15 K, 80000 kPa | – | 897.79
383.15 K, 90000 kPa | – | 897.79
383.15 K, 100000 kPa | – | 897.79
383.15 K, 110000 kPa | – | 897.79
383.15 K, 120000 kPa | – | 897.79
383.15 K, 130000 kPa | – | 897.79
383.15 K, 140000 kPa | – | 897.79
393.15 K, 100 kPa | 914.32 | 922.8
393.15 K, 10000 kPa | – | 920.57
393.15 K, 20000 kPa | – | 919.23
393.15 K, 30000 kPa | – | 918.34
393.15 K, 40000 kPa | – | 917.44
393.15 K, 50000 kPa | – | 917
393.15 K, 60000 kPa | – | 916.55
393.15 K, 70000 kPa | – | 916.1
393.15 K, 80000 kPa | – | 916.1
393.15 K, 90000 kPa | – | 915.66
393.15 K, 100000 kPa | – | 915.66
393.15 K, 110000 kPa | – | 915.66
393.15 K, 120000 kPa | – | 915.66
393.15 K, 130000 kPa | – | 915.66
393.15 K, 140000 kPa | – | 916.1
403.15 K, 100 kPa | – | 941.12
403.15 K, 10000 kPa | – | 938.88
403.15 K, 20000 kPa | – | 937.54
403.15 K, 30000 kPa | – | 936.65
403.15 K, 40000 kPa | – | 935.76
403.15 K, 50000 kPa | – | 934.86
403.15 K, 60000 kPa | – | 934.86
403.15 K, 70000 kPa | – | 934.42
403.15 K, 80000 kPa | – | 934.42
403.15 K, 90000 kPa | – | 933.97
403.15 K, 100000 kPa | – | 933.97
403.15 K, 110000 kPa | – | 933.97
403.15 K, 120000 kPa | – | 933.97
403.15 K, 130000 kPa | – | 934.42
403.15 K, 140000 kPa | – | 934.42
413.15 K, 100 kPa | – | 959.88
413.15 K, 10000 kPa | – | 957.64
413.15 K, 20000 kPa | – | 956.3
413.15 K, 30000 kPa | – | 954.96
413.15 K, 40000 kPa | – | 954.07
413.15 K, 50000 kPa | – | 953.62
413.15 K, 60000 kPa | – | 953.18
413.15 K, 70000 kPa | – | 953.18
413.15 K, 80000 kPa | – | 952.73
413.15 K, 90000 kPa | – | 952.73
413.15 K, 100000 kPa | – | 952.73
413.15 K, 110000 kPa | – | 952.73
413.15 K, 120000 kPa | – | 952.73
413.15 K, 130000 kPa | – | 953.18
413.15 K, 140000 kPa | – | 953.18
423.15 K, 100 kPa | 981.32 | –
